Values quoted from earlier work, collected in publication PMC8513935.

Experiments:
[1] = experimental, compiled by the authors from the literature (the ESI cites the sources)
[2] = derived by the authors as gas->solvent minus gas->water (a hypothetical dry solvent; the ESI), not a two-phase measurement

## CCSC
[1]; Hexadecane, 25 C
  log K of transfer, gas to solvent: 2.37 log10 K
[1]; Water, 25 C
  log K of transfer, gas to solvent: 1.1 log10 K
[2]; Hexadecane, 25 C
  log K of transfer, water to solvent: 1.27 log10 K

## c1ccncc1
[1]; 1,2-Dichloroethane, 25 C
  log K of transfer, gas to solvent: 4.16 log10 K
[1]; 2-Methylpropan-1-ol, 25 C
  log K of transfer, gas to solvent: 4.16 log10 K
[1]; 2-Methylpropan-2-ol, 25 C
  log K of transfer, gas to solvent: 3.96 log10 K
[1]; Benzene, 25 C
  log K of transfer, gas to solvent: 3.87 log10 K
[1]; Butan-1-ol, 25 C
  log K of transfer, gas to solvent: 3.95 log10 K
[1]; Butan-2-ol, 25 C
  log K of transfer, gas to solvent: 4.13 log10 K
[1]; Butanone, 25 C
  log K of transfer, gas to solvent: 3.94 log10 K
[1]; CCl4, 25 C
  log K of transfer, gas to solvent: 3.77 log10 K
[1]; Chloroform, 25 C
  log K of transfer, gas to solvent: 4.73 log10 K
[1]; Cyclohexane, 25 C
  log K of transfer, gas to solvent: 3.03 log10 K
[1]; Ethanol, 25 C
  log K of transfer, gas to solvent: 4.18 log10 K
[1]; Hexadecane, 25 C
  log K of transfer, gas to solvent: 3.02 log10 K
[1]; Hexane, 25 C
  log K of transfer, gas to solvent: 3.07 log10 K
[1]; Propan-1-ol, 25 C
  log K of transfer, gas to solvent: 3.99 log10 K
[1]; Propan-2-ol, 25 C
  log K of transfer, gas to solvent: 3.86 log10 K
[1]; Propanone, 25 C
  log K of transfer, gas to solvent: 3.97 log10 K
[1]; Toluene, 25 C
  log K of transfer, gas to solvent: 3.76 log10 K
[1]; Water, 25 C
  log K of transfer, gas to solvent: 3.44 log10 K
[2]; 1,2-Dichloroethane, 25 C
  log K of transfer, water to solvent: 0.72 log10 K
[2]; 2-Methylpropan-1-ol, 25 C
  log K of transfer, water to solvent: 0.72 log10 K
[2]; 2-Methylpropan-2-ol, 25 C
  log K of transfer, water to solvent: 0.52 log10 K
[2]; Acetone, 25 C
  log K of transfer, water to solvent: 0.53 log10 K
[2]; Benzene, 25 C
  log K of transfer, water to solvent: 0.43 log10 K
[2]; Butan-1-ol, 25 C
  log K of transfer, water to solvent: 0.51 log10 K
[2]; Butan-2-ol, 25 C
  log K of transfer, water to solvent: 0.69 log10 K
[2]; Butanone, 25 C
  log K of transfer, water to solvent: 0.5 log10 K
[2]; CCl4, 25 C
  log K of transfer, water to solvent: 0.33 log10 K
[2]; Chloroform, 25 C
  log K of transfer, water to solvent: 1.29 log10 K
[2]; Cyclohexane, 25 C
  log K of transfer, water to solvent: -0.41 log10 K
[2]; Ethanol, 25 C
  log K of transfer, water to solvent: 0.74 log10 K
[2]; Hexadecane, 25 C
  log K of transfer, water to solvent: -0.418 log10 K
[2]; Hexane, 25 C
  log K of transfer, water to solvent: -0.37 log10 K
[2]; Propan-1-ol, 25 C
  log K of transfer, water to solvent: 0.55 log10 K
[2]; Propan-2-ol, 25 C
  log K of transfer, water to solvent: 0.42 log10 K
[2]; Toluene, 25 C
  log K of transfer, water to solvent: 0.32 log10 K

## C=CCCCCCCCCCC
[1]; Hexadecane, 25 C
  log K of transfer, gas to solvent: 5.51 log10 K
[1]; Water, 25 C
  log K of transfer, gas to solvent: -1.87 log10 K

## CCCCCCCCl
[1]; Hexadecane, 25 C
  log K of transfer, gas to solvent: 4.21 log10 K
[1]; Water, 25 C
  log K of transfer, gas to solvent: -0.21 log10 K
[2]; Hexadecane, 25 C
  log K of transfer, water to solvent: 4.42 log10 K

## CCCCCN
[1]; Hexadecane, 25 C
  log K of transfer, gas to solvent: 3.14 log10 K
[1]; Water, 25 C
  log K of transfer, gas to solvent: 3 log10 K
[2]; Hexadecane, 25 C
  log K of transfer, water to solvent: 0.139 log10 K

## CCCC1CCCCC1
[1]; Hexadecane, 25 C
  log K of transfer, gas to solvent: 4.31 log10 K
[1]; Water, 25 C
  log K of transfer, gas to solvent: -1.32 log10 K

## CC(C)F
[1]; Hexadecane, 25 C
  log K of transfer, gas to solvent: 1.15 log10 K
[1]; Water, 25 C
  log K of transfer, gas to solvent: -0.364 log10 K

## CC1CCCCN1 (centres unmarked)
[1]; Hexadecane, 25 C
  log K of transfer, gas to solvent: 3.23 log10 K
[1]; Water, 25 C
  log K of transfer, gas to solvent: 3.15 log10 K

## CCCC(C)CC (centres unmarked)
[1]; Hexadecane, 25 C
  log K of transfer, gas to solvent: 3.04 log10 K
[1]; Water, 25 C
  log K of transfer, gas to solvent: -1.99 log10 K

## COC1CCCCC1
[1]; Hexadecane, 25 C
  log K of transfer, gas to solvent: 3.86 log10 K
[1]; Water, 25 C
  log K of transfer, gas to solvent: 2.43 log10 K

## CCSCC
[1]; Chloroform, 25 C
  log K of transfer, gas to solvent: 4.69 log10 K
[1]; Hexadecane, 25 C
  log K of transfer, gas to solvent: 3.02 log10 K
[1]; Water, 25 C
  log K of transfer, gas to solvent: 1.07 log10 K
[2]; Chloroform, 25 C
  log K of transfer, water to solvent: 3.62 log10 K

## Fc1ccc(Cl)cc1
[1]; Hexadecane, 25 C
  log K of transfer, gas to solvent: 3.55 log10 K
[1]; Water, 25 C
  log K of transfer, gas to solvent: 0.63 log10 K

## CCCN
[1]; 1,2-Dichloroethane, 25 C
  log K of transfer, gas to solvent: 2.96 log10 K
[1]; Benzene, 25 C
  log K of transfer, gas to solvent: 2.7 log10 K
[1]; CCl4, 25 C
  log K of transfer, gas to solvent: 2.63 log10 K
[1]; Chlorobenzene, 25 C
  log K of transfer, gas to solvent: 2.63 log10 K
[1]; Chloroform, 25 C
  log K of transfer, gas to solvent: 3.47 log10 K
[1]; Cyclohexane, 25 C
  log K of transfer, gas to solvent: 2.24 log10 K
[1]; Di-n-butyl ether, 25 C
  log K of transfer, gas to solvent: 2.14 log10 K
[1]; Hexadecane, 25 C
  log K of transfer, gas to solvent: 2.14 log10 K
[1]; Hexane, 25 C
  log K of transfer, gas to solvent: 2.26 log10 K
[1]; Toluene, 25 C
  log K of transfer, gas to solvent: 2.57 log10 K
[1]; Water, 25 C
  log K of transfer, gas to solvent: 3.22 log10 K

## CCCCCCCCN
[1]; Hexadecane, 25 C
  log K of transfer, gas to solvent: 4.6 log10 K
[1]; Water, 25 C
  log K of transfer, gas to solvent: 2.68 log10 K

## CCCCCCCCCCCCO
[1]; Hexadecane, 25 C
  log K of transfer, gas to solvent: 6.62 log10 K
[1]; Hexane, 25 C
  log K of transfer, gas to solvent: 6.79 log10 K
[1]; Water, 25 C
  log K of transfer, gas to solvent: 2.44 log10 K
[2]; Hexadecane, 25 C
  log K of transfer, water to solvent: 4.18 log10 K
[2]; Hexane, 25 C
  log K of transfer, water to solvent: 4.35 log10 K

## Fc1ccccc1
[1]; CCl4, 25 C
  log K of transfer, gas to solvent: 2.67 log10 K
[1]; Chloroform, 25 C
  log K of transfer, gas to solvent: 3.44 log10 K
[1]; Cyclohexane, 25 C
  log K of transfer, gas to solvent: 2.81 log10 K
[1]; Hexadecane, 25 C
  log K of transfer, gas to solvent: 2.79 log10 K
[1]; Hexane, 25 C
  log K of transfer, gas to solvent: 3.04 log10 K
[1]; Tetrahydrofuran, 25 C
  log K of transfer, gas to solvent: 3.62 log10 K
[1]; Water, 25 C
  log K of transfer, gas to solvent: 0.59 log10 K
[2]; CCl4, 25 C
  log K of transfer, water to solvent: 2.08 log10 K
[2]; Chloroform, 25 C
  log K of transfer, water to solvent: 2.85 log10 K
[2]; Cyclohexane, 25 C
  log K of transfer, water to solvent: 2.22 log10 K
[2]; Hexadecane, 25 C
  log K of transfer, water to solvent: 2.2 log10 K
[2]; Hexane, 25 C
  log K of transfer, water to solvent: 2.45 log10 K
[2]; Tetrahydrofuran, 25 C
  log K of transfer, water to solvent: 3.03 log10 K

## CNC=O
[1]; Hexadecane, 25 C
  log K of transfer, gas to solvent: 2.86 log10 K
[1]; Propanone, 25 C
  log K of transfer, gas to solvent: 5.39 log10 K
[1]; Water, 25 C
  log K of transfer, gas to solvent: 6.57 log10 K

## Fc1ccccc1Cl
[1]; Hexadecane, 25 C
  log K of transfer, gas to solvent: 3.64 log10 K
[1]; Water, 25 C
  log K of transfer, gas to solvent: 0.72 log10 K
